Test results from patent US20230087118A1, “IMIDAZO[1,2-a][sequence] DERIVATIVES AND THEIR USE IN THE TREATMENT OF DISEASE” (priority 2019, published 2023).

Assays:
IRAK4 [1] = target: T1, IRAK4 (Homo sapiens, UniProt Q9NWZ3); assay: biochemical
T1 sequence (Q9NWZ3 1-460): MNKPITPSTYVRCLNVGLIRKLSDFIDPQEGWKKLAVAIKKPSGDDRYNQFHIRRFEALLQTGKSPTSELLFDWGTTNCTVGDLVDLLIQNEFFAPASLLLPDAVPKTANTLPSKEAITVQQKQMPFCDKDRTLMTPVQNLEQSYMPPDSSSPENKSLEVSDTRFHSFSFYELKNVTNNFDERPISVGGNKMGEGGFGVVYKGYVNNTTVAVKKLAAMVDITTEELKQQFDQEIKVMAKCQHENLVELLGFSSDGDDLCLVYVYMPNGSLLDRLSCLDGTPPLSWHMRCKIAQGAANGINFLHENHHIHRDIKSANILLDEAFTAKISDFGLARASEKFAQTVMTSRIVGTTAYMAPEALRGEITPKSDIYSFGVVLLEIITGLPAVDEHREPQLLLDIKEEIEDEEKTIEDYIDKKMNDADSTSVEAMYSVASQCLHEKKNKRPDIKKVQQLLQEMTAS

IRAK4 [2] = target: T1, IRAK4; assay: 2-hour 10 μM ATP Biochemical Assay (MesoScale Detection format; IRAK4 phosphorylation of biotin labeled IRAK1 activation loop peptide); conditions: 0.1 nM IRAK4
Procedure: Compounds of the invention were assessed for their ability to inhibit IRAK4 activity. The inhibitory properties of the compounds of the invention described herein can be evidenced by testing in any one of the following assays.
The 2-hour 10 μM ATP Biochemical Assay employs a MesoScale Detection (MSD) format. The kinase reaction is based on the IRAK4 phosphorylation of a biotin labeled peptide (IRAK1 activation loop sequence 360-389).
The kinase reaction in 30 μl is carried out in wells of a 384 well polypropylene assay plate, with 0.1 nM IRAK4, 1.6 μM of biotinylated peptide substrate and 10 μM ATP in 50 mM Hepes, pH 7.5, 60 mM NaCl, 5 mM MgCl2, 0.25 mM MnCl2, 2 mM DTT, 0.01% BSA, and 1% DMSO (from compound DMSO stocks), for 2 hour at room temperature. The activity is quenched with 11 μl of 70 mM EDTA, pH 8.
To detect the phosphorylated biotinylated peptide substrate, 30 μl of the quenched reaction mixture is added to equivalent wells of a 384 well streptavidin coated MesoScale plate (Meso Scale Discovery #L21SA-1). After a 1 hour incubation of the plate for 1 hour at room temperature with gentle mixing, the plate wells are washed 3 times with 50 mM Tris, pH 7.5, 150 mM NaCl, 0.02% Tween-20.
A 25 μl volume of 1:500 anti-P-Threonine Rabbit polyclonal Antibody plus 1:500 Goat-anti-Rabbit Sulfo Tag Antibody (Meso Scale Discovery R32AB-1) in 50 mM Tris, pH 7.5, 150 mM NaCl, 0.02% Tween-20 plus 2% BSA is then added to each well. After a 1-hour incubation of the plate for 1 hour at room temperature with gentle mixing, the plate wells are washed, 3 times with 50 mM Tris, pH 7.5, 150 mM NaCl, 0.02% Tween-20. A 40 μl volume of 2× MSD Read Buffer (Meso Scale Discovery R92TC-1) is added to each well, and the plate is read immediately in an MSD Plate Reader (Meso Scale Discovery).

[3] = IRAK4 Biochemical Assay (1 mM ATP, 2 h) IC50 (μM), 1 mM ATP, 2 h, 100 pM IRAK4

IC50 (IRAK4 [1])	IC50 (IRAK4 [2])	IC50 (IRAK4 [1]; [3])	SMILES
0.0015 µM	1 nM		CCOc1cc2nc(C[C@@H]3CCOC3)cn2cc1C(=O)Nc1cccc(C(F)F)n1 [Example 65, N-[6-(difluoromethyl)-2-pyridyl]-7-ethoxy-2-[[(3R)-tetrahydrofuran-3-yl]methyl]imidazo[1,2-a]pyridine-6-carboxamide]
0.0053 µM	2 nM		COc1cc2nc(C3CCOCC3)cn2cc1C(=O)Nc1cccc(Cl)c1OC [Example 170]
0.0257 µM	8 nM		COc1cc2nc(C3CCOCC3)cn2cc1C(=O)Nc1cccc(C(F)(F)F)c1 [Example 158]
0.0016 µM	1 nM		COc1cc2nc(C3CCOCC3)cn2cc1C(=O)Nc1cccc2c1OCCC2 [Example 162]
0.0096 µM	4 nM		COc1cc2nc(C3CCOCC3)cn2cc1C(=O)Nc1cccc(C(F)(F)F)n1 [Example 203]
	13 nM	0.04 µM	COc1cc2nc(C3CCOCC3)cn2cc1C(=O)Nc1ccn(C(F)F)n1 [Example 48]
0.0085 µM	3 nM		COc1cccc(NC(=O)c2cn3cc(C4CCOCC4)nc3cc2OC)n1 [Example 21]
0.0174 µM	4 nM		COc1cc2nc(C3CCOCC3)cn2cc1C(=O)Nc1cccc2c1CCCC2 [Example 118]
	2 nM	0.0032 µM	COc1cc2nc(C3CCOC(C)(C)C3)cn2cc1C(=O)Nc1cccc(C(F)(F)F)n1 (stereo not shown) [Example 43]
	9 nM	0.0263 µM	COc1cccc(NC(=O)c2cn3cc(C4CC(OC)C4)nc3cc2OC)n1 (stereo not shown) [Example 8]
	5 nM	0.0157 µM	COc1cc2nc(C3CCC(OC)C3)cn2cc1C(=O)Nc1cccc(C(F)(F)F)n1 (stereo not shown) [Example 41]
0.0417 µM	10 nM		COc1cc2nc(C3CCOCC3)cn2cc1C(=O)Nc1ccccc1F [Example 147]
0.04 µM	13 nM		COc1cc2nc(C3CCOCC3)cn2cc1C(=O)Nc1cccc2c1CCO2 [Example 107]
0.013 µM	8 nM		COc1cc2nc(C3C4COCC43)cn2cc1C(=O)Nc1cccc(C(F)(F)F)n1 (stereo not shown) [Example 32]
0.021 µM	7 nM		COc1cccc(NC(=O)c2cn3cc(CC4CCOC4)nc3cc2OC)n1 (stereo not shown) [Example 24]
0.0296 µM	12 nM		COc1cc2nc(C3CCOCC3)cn2cc1C(=O)Nc1cc(F)cc(C(F)F)c1 [Example 169]
0.0311 µM	9 nM		COc1cc2nc(C3CCOCC3)cn2cc1C(=O)Nc1ccccn1 [Example 146]
0.0089 µM	4 nM		COc1cc2nc(C3CCOCC3)cn2cc1C(=O)Nc1cccc2c1OCC2 [Example 179]

IC50 (IRAK4 [1])	IC50 (IRAK4 [2])	IC50 (IRAK4 [1]; [3])	SMILES
	9 nM	0.0242 µM	COc1cccc(NC(=O)c2cn3cc(C4CC45CCCCO5)nc3cc2OC)n1 (stereo not shown) [Example 9]
0.0645 µM	14 nM		COc1cc2nc(C3CCOCC3)cn2cc1C(=O)Nc1cscc1C [Example 135]
0.014 µM	5 nM		COc1cc2nc(CC3CCOC3)cn2cc1C(=O)Nc1cccc(C(F)(F)F)n1 (stereo not shown) [Example 33]
0.0251 µM	7 nM		COc1cc2nc(C3CCOCC3)cn2cc1C(=O)Nc1cccc(Cl)c1 [Example 144]
0.018 µM	5 nM		COc1cccc(NC(=O)c2cn3cc(C4C5COCC54)nc3cc2OC)n1 (stereo not shown) [Example 22]
0.0129 µM	4 nM		COc1cc2nc(C3CCOCC3)cn2cc1C(=O)Nc1cccc(C(F)F)c1 [Example 125]
0.0378 µM	11 nM		COc1cc2nc(C3CCOCC3)cn2cc1C(=O)Nc1ccccc1OC(C)C [Example 168]
0.0419 µM	13 nM		COc1cc2nc(C3CCOCC3)cn2cc1C(=O)Nc1cccc(C(C)(F)F)c1 [Example 145]
0.016 µM	4 nM		COc1cc2nc(C3CCOCC3)cn2cc1C(=O)Nc1cccc(F)c1Cl [Example 173]
0.0477 µM	7 nM		COc1cc2nc(C3CCOCC3)cn2cc1C(=O)Nc1cccc(Cl)c1C [Example 174]
	8 nM	0.0262 µM	COc1cc2nc(C3CC(OC)C3)cn2cc1C(=O)Nc1cccc(C(F)(F)F)n1 (stereo not shown) [Example 36]
0.0017 µM	1 nM		CCOc1cc2nc(C[C@H]3CCOC3)cn2cc1C(=O)Nc1cccc(C(F)F)n1 (single isomer, unassigned) [Example 64]
	3 nM	0.0088 µM	COc1cc2nc(C3CC4CCC(C3)O4)cn2cc1C(=O)Nc1cccc(C(F)(F)F)n1 (stereo not shown) [Example 44]
	9 nM	0.0253 µM	COc1cc2nc(C34CC(C#N)(C3)C4)cn2cc1C(=O)Nc1cccc(C(F)(F)F)n1 [Example 37]
0.0134 µM	5 nM		CCOc1cc2nc(C(C)(C)C#N)cn2cc1C(=O)Nc1cccc(C(F)F)n1 [Example 74]
0.0245 µM	8 nM		COc1cc2nc(C3CCOCC3)cn2cc1C(=O)Nc1cccc(CF)c1 [Example 141]
0.0354 µM	10 nM		COc1cc2nc(C3CCOCC3)cn2cc1C(=O)Nc1cccc(C)c1 [Example 143]
